These results are taken from patent US7417062B2, “Substituted arylamides” (ChemoCentryx, Inc., priority 2004, dated 2008).

pIC50: −log10 of the molar value.

T1 sequence (P25106 whole entry): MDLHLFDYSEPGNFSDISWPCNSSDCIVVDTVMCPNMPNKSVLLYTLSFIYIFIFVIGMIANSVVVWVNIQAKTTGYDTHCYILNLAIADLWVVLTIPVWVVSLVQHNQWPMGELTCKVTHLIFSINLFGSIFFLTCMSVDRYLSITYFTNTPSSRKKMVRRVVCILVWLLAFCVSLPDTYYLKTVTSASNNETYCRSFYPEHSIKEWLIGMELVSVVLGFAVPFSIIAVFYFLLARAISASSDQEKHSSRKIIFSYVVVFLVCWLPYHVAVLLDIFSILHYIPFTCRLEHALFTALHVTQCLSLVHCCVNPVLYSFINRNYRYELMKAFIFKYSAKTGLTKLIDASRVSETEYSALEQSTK

The first test addresses T1, CCXCKR2 receptor (Homo sapiens, UniProt P25106).
T1 construct: host or cells: MCF-7 (endogenous) and/or MDA-MB-435S transfected with hRDC1 in pcDNA3.1(+)
In words: Displacement of 125I-labeled SDF-1 from the CCXCKR2 receptor (radioligand binding, determination of IC50 values).
Details: not given
As to the method: The ability of the compounds to displace the labeled chemokine from the CCXCKR2 receptor sites at multiple concentrations was then determined with the screening process.
Compounds that were deemed effective modulators were able to displace at least 50% of the SDF-1 from the CCXCKR2 receptor at concentrations at or below 10 micromolar (μM) and more preferably at concentrations at or below 2 micromolar. At present, especially preferred compounds can displace at least 50% of the SDF-1 from the CCXCKR2 receptor at concentrations at or below 500 nM. Exemplary compounds that met these criteria are reproduced in Table B below. All compounds were prepared as described in the Examples above, or by related methods substituting readily available starting materials.
Reagents and Cells. ^125I-labeled SDF-1 was purchased from Perkin-Elmer Life Sciences, Inc. (Boston, Mass.). The MCF-7 (adenocarcinoma; mammary gland) cell line was obtained from the American Type Culture Collection (Manassas, Va.) or and was cultured in DMEM (Mediatech, Herndon, Va.) supplemented with 10% fetal bovine serum (FBS) (HyClone Logan, Utah) and bovine insulin (0.01 mg/mL) (Sigma, St. Louis, Mo.) at 37° C. in a humidified incubator at a 5% CO2/air mixture. CCXCKR2 transfected MDA-MB-435S were produced as described below. MDA-MB-435S human breast cancer line, was purchased from ATCC, and cultured in DMEM/10% FBS medium. The complete coding sequence of the gene encoding CCXCKR2 (a.k.a.CXCR7, hRDC1), was isolated from MCF-7 cells using μMACs mRNA isolation kit (Miltenyi Biotec, Auburn, Calif.). DNA contamination was removed by DNase digestion via RNeasy columns (Qiagen, Inc., Valencia, Calif.) and cDNA was generated using GeneAmp RNA PCR Core Kit (Applied Biosystems, Foster City, Calif.). PCR of cDNA samples was performed using Taq PCR Master Mix kit (Qiagen, Inc.) and hRDC1 primers harboring 5′ and 3′ Not I sites (hRDC1F 5′-[…]-3′ (SEQ ID NO:1), hRDC1R 5′-[…]-3′ (SEQ ID NO:2)) Not I digested PCR product was ligated into Not I digested pcDNA3.1(+)(Invitrogen, Carlsbad, Calif.) and screened for orientation and sequence confirmed. Plasmid DNA was then isolated from overnight bacterial cultures by Maxiprep (Qiagen, Inc.). Plasmid DNA (10 μg) was added to MDA-MB-435s cells and cells were electroporated (0.22 kV, 960 uF) via Gene Pulser (Biorad laboratories, Hercules, Calif.). 48 hr post-electroporation, cells were transferred to selection medium (1000 ug/ml G418).
Binding Analysis. Target compounds were tested to determine their ability to bind with CCXCKR2 sites on MCF-7 and/or MDA-MB-435S cells. Efficiency-maximized radioligand binding using filtration protocols as described in Dairaghi D J, et al., HHV8-encoded vMIP-I selectively engages chemokine receptor CCR5. Agonist and antagonist profiles of viral chemokines., J. Biol. Chem. 1999 Jul. 30; 274(31): 21569-74 and Gosling J, et al., Cutting edge: identification of a novel chemokine receptor that binds dendritic cell-and T cell-active chemokines including ELC, SLC, and TECK., J. Immunol. 2000 Mar. 15; 164(6):2851-6 was used.
In these assays, MCF-7 and/or MDA-MB-435S cells were interrogated with the target compounds and the ability of these compounds to displace ^125I radiolabeled SDF-1 was assessed using the protocol described in Dairaghi and Gosling. The target compounds were added to the plate to the indicated concentration and were then incubated with cells followed by the addition of radiolabeled chemokine (^125I SDF-1) for 3 hr at 4° C. in the following binding medium (25 mM HEPES, 140 mM NaCl, 1 mM CaCl2, 5 mM MgCl2 and 0.2% bovine serum albumin, adjusted to pH 7.1). All assays were then incubated for 3 hrs at 4° C. with gentle agitation. Following incubation in all binding assays, reactions were aspirated onto PEI-treated GF/B glass filters (Packard) using a cell harvester (Packard) and washed twice (25 mM HEPES, 500 mM NaCl, 1 mM CaCl2, 5 mM MgCl2, adjusted to pH 7.1). […]
(In general: Loss of bound radioactivity is the signal in a displacement assay; it reports binding, not function.)
`COc1cc(C(=O)N(Cc2ccc3cccnc3n2)C[C@@H]2CCCN2C[C@H]2C[C@H]3CC[C@@H](C2)N3)cc2c1OC(C)(C)O2` [Example 41] showed a pIC50 of over 6.30.

The test is the same for the next values; noted with them: MCF-7 and/or MDA-MB-435S cells expressing CCXCKR2; 125I SDF-1; 3 hr at 4° C.; read-out: Activity (ability to displace 125I SDF-1 from CCXCKR2).
Turning to `COc1ccc(C(=O)N(Cc2nc3ccccc3s2)C[C@@H]2CCCN2)cc1OC` [Example 25, N-Benzothiazol-2-yl methyl-3,4 dimethoxy-N—(S)-pyrrolidin-2-ylmethyl-benzamide], the pIC50 is over 5.70.

Consider `COc1ccc(C(=O)N(Cc2nc3ccccc3s2)C[C@@H]2CCCN2CCO)cc1OC` [Example 26, N-Benzothiazol-2-yl methyl-(S)—N-[1-(2-hydroxy-ethyl)-pyrrolidin-2-ylmethyl]-3,4-dimethoxy-benzamide], for which the pIC50 was over 6.30.

Consider `COc1ccc(C(=O)N(Cc2nc3ccccc3s2)C[C@@H]2CCCN2CC2CCCCC2)cc1OC` [Example 27, N-Benzothiazol-2-yl methyl-(S)—N-(1-cyclohexylmethyl-pyrrolidin-2-ylmethyl)-3,4-dimethoxy-benzamide], for which the pIC50 was over 6.30.

For `COc1ccc(C(=O)N(Cc2nc3ccccc3s2)C[C@@H]2CCCN2C(C)C)cc1OC` [Example 28, N-Benzothiazol-2-yl methyl-(S)—N-(1-isopropyl-pyrrolidin-2-ylmethyl)-3,4-dimethoxy-benzamide], the pIC50 was over 6.30.

On to `COc1ccc(C(=O)N(Cc2cc3ccccc3s2)C[C@@H]2CCCN2)cc1OC` [Example 29, N-Benzo[b]thiophene-2-ylmethyl-3,4-dimethoxy-N—(S)-pyrrolidin-2-ylmethyl-benzamide], for which the pIC50 is over 5.70.

As for `COc1ccc(C(=O)N(Cc2cc3ccccc3s2)C[C@@H]2CCCN2CC2CCCCC2)cc1OC` [Example 30, N-Benzo[b]thiophen-2-yl methyl-(S)—N-(1-cyclohexylmethyl-pyrrolidin-2-ylmethyl)-3,4-dimethoxy-benzamide], the pIC50 was over 6.30.

Regarding `COc1cc(C(=O)N(C[C@@H]2CCCN2)c2cccc(-c3ccccc3)c2)ccc1OC(F)F` [Example 31, N-Biphenyl-3-yl-4-difluoromethoxy-3-methoxy-(S)—N-pyrrolidin-2-ylmethyl-benzamide], the pIC50 is over 6.30.

For the molecule `COc1cc(C(=O)N(C[C@@H]2CCCN2CC2CC2)c2cccc(-c3ccccc3)c2)ccc1OC(F)F` [Example 32, N-Biphenyl-3-yl-(S)—N-(1-cyclopropylmethyl-pyrrolidin-2-ylmethyl)-4-difluoromethoxy-3-methoxy-benzamide], the pIC50 was over 6.30.

In the case of `COc1cc(C(=O)N(C[C@@H]2CCCN2CC2CCCCC2)c2cccc(-c3ccccc3)c2)ccc1OC(F)F` [Example 33, N-biphenyl-3-yl-(S)—N-(1-cyclohexylmethyl-pyrrolidin-2-ylmethyl)-4-difluoromethoxy-3-methoxy-benzamide], the pIC50 is over 6.30.

On to `COc1ccc(C(=O)N(C[C@@H]2CCCN2CC2CC2)c2cccc(-c3cccc(C#N)c3)c2)cc1OC` [Example 34, N-(3′-Cyano-biphenyl-3-yl)-(S)—N-(1-cyclopropylmethyl-pyrrolidin-2-ylmethyl)-3,4-dimethoxy-benzamide], for which the pIC50 was over 5.00.

For `COc1ccc(C(=O)N(C[C@@H]2CCCN2CC2CC2)c2cccc(-c3cccnc3)c2)cc1OC` [Example 35, (S)—N-(1-Cyclopropylmethyl-pyrrolidin-2-ylmethyl)-3,4-dimethoxy-N-(3-pyridin-3-yl-phenyl)-benzamide], the pIC50 was over 5.70.

For `CCOC(=O)c1ccc(-c2cccc(N(C[C@@H]3CCCN3CC3CC3)C(=O)c3ccc(OC)c(OC)c3)c2)cc1` [Example 36, (S)-3′-[(1-Cyclopropylmethyl-pyrrolidin-2-ylmethyl)-(3,4-dimethoxy-benzoyl)-amino]-biphenyl-4-carboxylic acid ethyl ester], the pIC50 was over 5.00.

For `COc1ccc(C(=O)N(C[C@@H]2CCCN2CC2CC2)c2cccc(-c3ccc(N(C)C)cc3)c2)cc1OC` [Example 37, (S)—N-(1-Cyclopropylmethyl-pyrrolidin-2-ylmethyl)-N-(4′-dimethylamino-biphenyl-3-yl)-3,4-dimethoxy-benzamide], the pIC50 was over 5.00.

In the case of `COc1ccc(C(=O)N(C[C@@H]2CCCN2CC2CC2)c2cccc(-c3ccc(F)c(Cl)c3)c2)cc1OC` [Example 38, N-(3′-Chloro-4′-fluoro-biphenyl-3-yl)-(S)—N-(1-cyclopropylmethyl-pyrrolidin-2-ylmethyl)-3,4-dimethoxy-benzamide], the pIC50 was over 5.00.

Turning to `COc1cc(C(=O)N(Cc2cc3ccccc3cn2)C[C@@H]2CCCN2CC2CNC2)cc2c1OC(C)(C)O2` [Example 39, 7-Methoxy-2,2-dimethyl-benzo[1,3]dioxole-5-carboxylic acid ((S)-1-azetidin-3-ylmethyl-pyrrolidin-2-ylmethyl)-isoquinolin-3-ylmethyl-amide], the pIC50 was over 5.70.

Consider `COc1cc(C(=O)N(Cc2ccc3cccnc3n2)C[C@@H]2C[C@@H]3CCCC[C@@H]3N2)cc2c1OC(C)(C)O2` [Example 42, 7-Methoxy-2,2-dimethyl-benzo[1,3]dioxole-5-carboxylic acid [1,8]naphthyridin-2-ylmethyl-[(2S,3aS,7aS)-1-(octahydro-indol-2-yl)methyl]-amide], for which the pIC50 was over 6.30.

Regarding `COc1cc(C(=O)N(Cc2ccc3ccccc3n2)C[C@@H]2CCCN2C2CCC2)cc2c1OC(C)(C)O2` [Example 43, 7-Methoxy-2,2-dimethyl-benzo[1,3]dioxole-5-carboxylic acid ((S)-1-cyclobutyl-pyrrolidin-2-ylmethyl)-quinolin-2-ylmethyl-amide], the pIC50 was over 6.30.

As for `COc1cc(C(=O)N(Cc2ccc3ccccc3n2)C[C@@H]2CCCN2CC2CNC2)cc2c1OC(C)(C)O2` [Example 44, 7-Methoxy-2,2-dimethyl-benzo[1,3]dioxole-5-carboxylic acid ((S)-1-azetidin-3-ylmethyl-pyrrolidin-2-ylmethyl)-quinolin-2-ylmethyl-amide], the pIC50 is over 6.30.

As for `COCCOCCN1CCC[C@H]1CN(Cc1ccc2ccccc2n1)C(=O)c1cc(OC)c2c(c1)OC(C)(C)O2` [Example 47, 7-Methoxy-2,2-dimethyl-benzo[1,3]dioxole-5-carboxylic acid {(S)-1-[2-(2-methoxy-ethoxy)-ethyl]-pyrrolidin-2-ylmethyl}-quinolin-2-ylmethyl-amide], the pIC50 is over 6.30.

As for `COc1cc(C(=O)N(Cc2ccc3ccccc3n2)CC2CNC2)cc2c1OC(C)(C)O2` [Example 48, 7-Methoxy-2,2-dimethyl-benzo[1,3]dioxole-5-carboxylic acid azetidin-3-ylmethyl-quinolin-2-ylmethyl-amide], the pIC50 was over 6.30.

As for `COc1cc(C(=O)N(Cc2ccc3ccccc3n2)CC2CN(C)C2)cc2c1OC(C)(C)O2` [Example 49, 7-Methoxy-2,2-dimethyl-benzo[1,3]dioxole-5-carboxylic acid (1-methyl-azetidin-3-ylmethyl)-quinolin-2-ylmethyl-amide], the pIC50 was over 6.30.

Turning to `COc1cc(C(=O)N(Cc2nc(-c3ccccc3)cs2)C[C@@H]2CCCN2C2CCC2)cc2c1OC(C)(C)O2` [Example 50, 7-Methoxy-2,2-dimethyl-benzo[1,3]dioxole-5-carboxylic acid ((S)-1-cyclobutyl-pyrrolidin-2-ylmethyl)-(4-phenyl-thiazol-2-ylmethyl)-amide], the pIC50 was over 6.30.
